Measurements taken from patent US20260097037A1, “FUSED RING COMPOUND HAVING GLP-1 RECEPTOR AGONIST EFFECT” (Shionogi & Co., Ltd., priority 2022, published 2026).

Biological target: T1, Human GLP-1 receptor stably expressing cells (hGLP-1R/CHO-K1 cells) (Homo sapiens, UniProt P43220)
T1 construct: expressed in transfected cells
Experiment: Measurement of GLP-1 receptor agonist activity (cAMP assay)
Assay type: cell-based
Conditions: for Emax: CHO-K1, maximum effect, cAMP with 2 nM human GLP-1 (7-36) = 100%, DMSO only = 0%, read-out: Emax; for EC50: increase in cAMP concentration in hGLP-1R/CHO-K1 cells, 37° C. 1 hour
Method: Test Example 1: Measurement of GLP-1 Receptor Agonist Activity
Human GLP-1 receptor stably expressing cells (hGLP-1R/CHO-K1 cells) are cultured in an a-MEM medium (Sigma) containing 10% FBS (Hyclone), 2% GlutaMAX (Gibco), 1% G418 (Nacalai Tesque), and 1% Penicillin-Streptomycin Mixed Solution (Sigma) at 37° C. under 5% CO2 conditions, and recovered by treating a 10 fold diluted 5.0 g/1-trypsin/5.3 mmol/1-EDTA solution (Nacalai Tesque) and cryopreserved.
A DMSO solution containing the compound of the present invention or human GLP-1 (7-36) (Phoenix Pharmaceuticals) is dispensed into a 384-well microplate (Greiner) at 62.5 nL/well, and in addition, 400 μM Forskolin (Nacalai Tesque) is dispensed therein at 7.5 nL/well. Subsequently, the frozen GLP-1 R/CHO-K1 cells are thawed in a thermostatic bath at 37° C., suspended in HBSS buffer (GIBCO) containing 0.1% BSA (Sigma), 20 mM HEPES, 0.1 mM IBMX (Sigma), and 0.2 mM RO20-1724 (Calbiochem) at 2×10^4 cells/mL, and the cell suspension is added at 6 μL/well. The solution was incubated at 37° C. for 1 hour and intracellular cAMP concentration is measured using cAMP Gs dynamic kit (Cisbio) according to the protocol attached to the product. Specifically, a cAMP-d2/Anti-cAMP-Cryptate (1/1) mixture solution is added in a total amount of 6 μL/well, and is incubated at room temperature for 1 hour, and then, time-resolved fluorescence is measured using PHERAstar (BMG Labtech).
Assuming that the cAMP concentration when human GLP-1 (7-36) is dispensed to a final concentration of 2 nM is 100% and the cAMP concentration when only DMSO is dispensed is 0%, the 50% effective concentration (EC50) and the maximum effect (Emax) of the compound of the present invention are calculated using an increase in the cAMP concentration as an index, using TIBCO Spotfire (TIBCO Software). The dilution concentration or the dilution solvent are changed as necessary.
The compounds of the present invention were tested essentially as described above.

T1 sequence (P43220 24-463): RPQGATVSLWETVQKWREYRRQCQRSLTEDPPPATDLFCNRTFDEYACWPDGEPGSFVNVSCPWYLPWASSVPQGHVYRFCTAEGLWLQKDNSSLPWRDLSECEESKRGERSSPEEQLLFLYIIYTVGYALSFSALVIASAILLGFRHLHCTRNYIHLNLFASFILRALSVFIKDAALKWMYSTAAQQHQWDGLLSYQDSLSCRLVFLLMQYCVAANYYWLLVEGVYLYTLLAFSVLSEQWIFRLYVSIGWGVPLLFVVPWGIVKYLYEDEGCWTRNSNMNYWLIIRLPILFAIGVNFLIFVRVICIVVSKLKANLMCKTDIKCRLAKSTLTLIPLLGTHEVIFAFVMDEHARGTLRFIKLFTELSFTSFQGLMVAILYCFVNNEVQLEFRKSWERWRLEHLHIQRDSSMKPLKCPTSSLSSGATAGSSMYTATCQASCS

| Emax | EC50 | SMILES |
| --- | --- | --- |
| 120% | 0.119 nM | C[C@H]1c2nc(OCc3cc(F)c(Cl)cc3F)c(C#N)cc2CCN1Cc1nc2c(Cl)cc(C(=O)O)cc2n1C[C@@H]1CCO1 [Compound I-188] |
| 109% | 0.121 nM | COc1cc(C(=O)O)cc2c1nc(CN1CCc3cc(C#N)c(OCc4ccccc4Cl)nc3[C@@H]1C)n2C[C@@H]1CCO1 [Compound I-145] |
| 112% | 0.371 nM | C[C@H]1c2nc(OCc3ncc(Cl)cc3Cl)c(C(F)(F)F)cc2CCN1Cc1nc2ccc(C(=O)O)cc2n1C[C@@H]1CCO1 [Compound I-106] |
| 66.3% | 83.5 nM | Cc1nc(COc2nc3c(cc2C(F)(F)F)CCN(Cc2nc4ccc(C(=O)O)cc4n2C[C@@H]2CCO2)[C@H]3C)no1 [Compound I-160] |
| 112% | 0.19 nM | C[C@H]1c2nc(NCc3ccc(Cl)cc3F)c(C(F)(F)F)cc2CCN1Cc1nc2ccc(C(=O)O)c(F)c2n1C[C@@H]1CCO1 [Compound I-153] |
| 129% | 0.0999 nM | C[C@H]1c2nc(OCc3ccc(C#N)c4ccoc34)c(C(F)(F)F)cc2CCN1Cc1nc2ccc(C(=O)O)cc2n1C[C@@H]1CCO1 [Compound I-143] |
| 115% | 0.038 nM | C[C@H]1c2nc(OCc3c(F)cc(Cl)cc3F)c(C(F)F)cc2CCN1Cc1nc2ccc(C(=O)O)c(F)c2n1C[C@@H]1CCO1 [Compound I-124] |
| 111% | 0.038 nM | C[C@H]1c2nc(OCc3ccc(Cl)cc3F)c(C(F)F)cc2CCN1Cc1nc2c(F)cc(C(=O)O)cc2n1C[C@@H]1CCO1 [Compound I-108] |
| 106% | 2.55 nM | C[C@H]1c2nc(OCc3ccccc3Cl)c(C(F)F)cc2CCN1Cc1nc2ccc(C(=O)O)nc2n1C[C@@H]1CCO1 [Compound I-099] |
| 115% | 0.0293 nM | COc1cc(C(=O)O)cc2c1nc(CN1CCc3cc(C#N)c(OCc4cc(F)c(Cl)cc4F)nc3[C@@H]1C)n2C[C@@H]1CCO1 [Compound I-146] |
| 98% | 2.05 nM | C[C@H]1c2c(cc(Cl)c3c2OC(C)(c2ccc(Cl)cc2F)O3)CCN1Cc1nc2ccc(C(=O)O)cc2n1C[C@@H]1CCO1 (some centres unmarked) [Compound I-090] |
| 101% | 0.671 nM | C[C@H]1c2c(cc(C(F)(F)F)c3c2O[C@@](C)(c2ccc(Cl)cn2)O3)CCN1Cc1nc2c(F)cc(C(=O)O)cc2n1C[C@@H]1CCO1 [Compound I-156] |
| 108% | 1.63 nM | C[C@H]1c2c(cc(C(F)(F)F)c3c2O[C@@](C)(c2ccc(Cl)cc2F)O3)CCN1Cc1nc2c(F)cc(C(=O)O)cc2n1C[C@@H]1CCO1 [Compound I-164] |
| 99.3% | 0.89 nM | C[C@H]1c2nc(OCc3cc(Cl)cs3)c(C(F)(F)F)cc2CCN1Cc1nc2ccc(C(=O)O)cc2n1C[C@@H]1CCO1 [Compound I-148] |
| 122% | 0.0591 nM | COc1cc(C(=O)O)cc2c1nc(CN1CCc3cc(C(F)F)c(OCc4ccc(Cl)cn4)nc3[C@@H]1C)n2C[C@@H]1CCO1 [Compound I-133] |
| 111% | 0.345 nM | C[C@H]1c2nc(NCc3ccc(Cl)cn3)c(C(F)(F)F)cc2CCN1Cc1nc2c(Cl)cc(C(=O)O)cc2n1C[C@@H]1CCO1 [Compound I-197] |
| 109% | 0.191 nM | C[C@H]1c2nc(NCc3ccc(Cl)cc3)c(C(F)(F)F)cc2CCN1Cc1nc2c(F)cc(C(=O)O)cc2n1C[C@@H]1CCO1 [Compound I-169] |
| 93.3% | 4.29 nM | C[C@H]1c2nc(OCc3ccc(Cl)cc3F)c(C(F)(F)F)cc2CCN1Cc1nc2c(-c3cccnc3)cc(C(=O)O)cc2n1C[C@@H]1CCO1 [Compound I-190] |
| 97.7% | 1.09 nM | C[C@H]1c2nc(OCc3nc(Cl)cs3)c(C(F)(F)F)cc2CCN1Cc1nc2ccc(C(=O)O)cc2n1C[C@@H]1CCO1 [Compound I-149] |
| 114% | 0.266 nM | C[C@H]1c2nc(NCc3ncc(Cl)cc3F)c(C(F)(F)F)cc2CCN1Cc1nc2c(F)cc(C(=O)O)cc2n1C[C@@H]1CCO1 [Compound I-191] |
| 106% | 0.339 nM | C[C@H]1c2nc(OCc3ccc(Cl)cc3F)c(C#N)cc2CCN1Cc1nc2ccc(C(=O)O)cc2n1C[C@@H]1CCO1 [Compound I-136] |
| 111% | 0.493 nM | C[C@H]1c2c(cc(C(F)(F)F)c3c2O[C@@](C)(c2ccc(Cl)cn2)O3)CCN1Cc1nc2c(Cl)cc(C(=O)O)cc2n1C[C@@H]1CCO1 [Compound I-158] |
| 119% | 0.148 nM | C[C@H]1c2nc(OCc3ccc(F)cc3F)c(C(F)F)cc2CCN1Cc1nc2ccc(C(=O)O)c(F)c2n1C[C@@H]1CCO1 [Compound I-121] |
| 141% | 0.108 nM | COc1cc(C(=O)O)cc2c1nc(CN1CCc3cc(C(F)F)c(OCc4ccccc4Cl)nc3[C@@H]1C)n2C[C@@H]1CCO1 [Compound I-130] |
| 113% | 0.043 nM | C[C@H]1c2nc(OCc3ccc(C#N)cc3F)c(C(F)F)cc2CCN1Cc1nc2c(F)cc(C(=O)O)cc2n1C[C@@H]1CCO1 [Compound I-115] |

More lines, now with the values behind:

| SMILES | Emax | EC50 |
| --- | --- | --- |
| C[C@H]1c2nc(OCc3c(F)cc(Cl)cc3F)c(Cl)cc2CCN1Cc1nc2ccc(C(=O)O)cc2n1C[C@@H]1CCO1 [Compound I-024] | 124% | 0.117 nM |
| COc1cc(C(=O)O)cc2c1nc(CN1CCc3cc(Cl)c(OCc4ccc(Cl)cc4F)nc3[C@@H]1C)n2C[C@@H]1CCO1 [Compound I-076] | 122% | 0.0208 nM |
| C[C@H]1c2nc(OCc3ccc(Cl)cn3)c(Cl)cc2CCN1Cc1nc2c(F)cc(C(=O)O)cc2n1C[C@@H]1CCO1 [Compound I-081] | 96.7% | 0.179 nM |
| C[C@H]1c2nc(OCc3ccc(C#N)cc3F)c(Cl)cc2CCN1Cc1nc2c(F)cc(C(=O)O)cc2n1C[C@@H]1CCO1 [Compound I-086] | 101% | 0.0685 nM |
| COc1cc(C(=O)O)cc2c1nc(CN1CCc3cc(Cl)c(OCc4ccc(F)cc4)nc3[C@@H]1C)n2C[C@@H]1CCO1 [Compound I-073] | 101% | 0.0658 nM |
| C[C@H]1c2nc(OCc3ccc(C#N)cc3F)c(C(F)F)cc2CCN1Cc1nc2ccc(C(=O)O)cc2n1C[C@@H]1CCO1 [Compound I-063] | 92.3% | 0.195 nM |
| O=C(O)c1ccc2nc(Cc3ccc4nc(C(F)(F)F)c(OCc5ccc(Cl)cc5F)nc4c3F)n(C[C@@H]3CCO3)c2c1F [Compound I-001] | 100% | 0.538 nM |
| COc1cc(Cl)ccc1COc1cc2c(cc1C(F)F)CCN(Cc1nc3ccc(C(=O)O)cc3n1C[C@@H]1CCO1)[C@H]2C [Compound I-006] | 130% | 0.308 nM |
| C[C@H]1c2c(cc(C(F)(F)F)c3c2O[C@](C)(c2ccc(Cl)cn2)O3)CCN1Cc1nc2ccc(C(=O)O)cc2n1C[C@@H]1CCO1 [Compound I-026] | 53.3% | 4210 nM |
| C[C@H]1c2nc(OCc3ccc(C#N)cc3F)c(Cl)cc2CCN1Cc1nc2ccc(C(=O)O)nc2n1C[C@@H]1CCO1 [Compound I-032] | 126% | 0.368 nM |
| C[C@H]1c2c(cc(C(F)(F)F)c3c2O[C@](C)(c2ccc(Cl)cc2F)O3)CCN1Cc1nc2ccc(C(=O)O)cc2n1C[C@@H]1CCO1 [Compound I-046] | 112% | 669 nM |
| C[C@H]1c2nc(OCc3ccc(Cl)cc3F)ncc2CCN1Cc1nc2ccc(C(=O)O)cc2n1C[C@@H]1CCO1 [Compound I-080] | 88.3% | 9.31 nM |
| COc1cc(C(=O)O)cc2c1nc(CN1CCc3cc(Cl)c(OCc4c(F)cc(Cl)cc4F)cc3[C@@H]1C)n2C[C@@H]1CCO1 [Compound I-074] | 104% | 0.0232 nM |
| C[C@H]1c2nc(OCc3ccc(Cl)cc3Cl)c(C(F)F)cc2CCN1Cc1nc2ccc(C(=O)O)cc2n1C[C@@H]1CCO1 [Compound I-057] | 86.7% | 0.315 nM |
| C[C@H]1c2nc(OCc3ccc(Cl)cc3F)c(Cl)cc2CCN1Cc1nc2ccc(C(=O)O)nc2n1C[C@@H]1CCO1 [Compound I-034] | 103% | 0.249 nM |
| C[C@H]1c2nc(OCc3cc(F)c(Cl)cc3F)c(Cl)cc2CCN1Cc1nc2ccc(C(=O)O)nc2n1C[C@@H]1CCO1 [Compound I-031] | 118% | 0.314 nM |
| Cc1ccc(COc2nc3c(cc2Cl)CCN(Cc2nc4ccc(C(=O)O)c(F)c4n2C[C@@H]2CCO2)[C@H]3C)cc1 [Compound I-035] | 124% | 0.158 nM |
| C[C@H]1c2cc(OCc3c(F)cc(Cl)cc3F)c(Cl)cc2CCN1Cc1nc2ccc(C(=O)O)c(F)c2n1C[C@@H]1CCO1 [Compound I-043] | 118% | 0.0647 nM |
